Measured values from PubChem BioAssay (NCI).
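Five concentrations, 48 hours, 96-well plates. At the TGI there is no net growth.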

Columns and labels:
Test in all cases: inhibition of tumour cell growth, NCI panel, 48 h
CCRF-CEM leukemia = system: CCRF-CEM leukemia
UO-31 renal = system: UO-31 renal
UACC-257 melanoma = system: UACC-257 melanoma
U251 CNS = system: U251 CNS
OVCAR-3 ovarian = system: OVCAR-3 ovarian
NCI-H226 lung = system: NCI-H226 lung
RPMI-8226 leukemia = system: RPMI-8226 leukemia
SW-620 colon = system: SW-620 colon
TK-10 renal = system: TK-10 renal
MCF7 breast = system: MCF7 breast
HCT-116 colon = system: HCT-116 colon
RXF 393 renal = system: RXF 393 renal
A549 NSCLC = system: A549 NSCLC
OVCAR-8 ovarian = system: OVCAR-8 ovarian
SK-OV-3 ovarian = system: SK-OV-3 ovarian
EKVX NSCLC = system: EKVX NSCLC
SF-295 CNS = system: SF-295 CNS
K-562 leukemia = system: K-562 leukemia
HCT-15 colon = system: HCT-15 colon
SK-MEL-5 melanoma = system: SK-MEL-5 melanoma
MOLT-4 leukemia = system: MOLT-4 leukemia
HOP-62 NSCLC = system: HOP-62 NSCLC
DU-145 prostate = system: DU-145 prostate
M14 melanoma = system: M14 melanoma
ACHN renal = system: ACHN renal
SN12C renal = system: SN12C renal
KM12 colon = system: KM12 colon
OVCAR-5 ovarian = system: OVCAR-5 ovarian
SK-MEL-28 melanoma = system: SK-MEL-28 melanoma
SK-MEL-2 melanoma = system: SK-MEL-2 melanoma
SF-268 CNS = system: SF-268 CNS
786-0 renal = system: 786-0 renal
MDA-MB-231 breast = system: MDA-MB-231 breast
SNB-19 CNS = system: SNB-19 CNS
LOX IMVI melanoma = system: LOX IMVI melanoma
HS 578T breast = system: HS 578T breast
HL-60(TB) leukemia = system: HL-60(TB) leukemia
OVCAR-4 ovarian = system: OVCAR-4 ovarian
MALME-3M melanoma = system: MALME-3M melanoma
NCI/ADR-RES ovarian = system: NCI/ADR-RES ovarian
HT29 colon = system: HT29 colon
SNB-75 CNS = system: SNB-75 CNS
PC-3 prostate = system: PC-3 prostate
MDA-MB-435 = system: MDA-MB-435
HCC-2998 colon = system: HCC-2998 colon
T-47D breast = system: T-47D breast
NCI-H460 lung = system: NCI-H460 lung
IGROV1 ovarian = system: IGROV1 ovarian
CAKI-1 renal = system: CAKI-1 renal
NCI-H522 lung = system: NCI-H522 lung
SF-539 CNS = system: SF-539 CNS
COLO 205 colon = system: COLO 205 colon
A498 renal = system: A498 renal
MDA-N = system: MDA-N
HOP-92 NSCLC = system: HOP-92 NSCLC
NCI-H23 lung = system: NCI-H23 lung
UACC-62 melanoma = system: UACC-62 melanoma
BT-549 breast = system: BT-549 breast

## CC(=O)N1CN2C(=O)CCC2c2cc(C)ccc21 (configuration not stated)
CCRF-CEM leukemia
  TGI: > 100 µM
UO-31 renal
  TGI: > 100 µM
UACC-257 melanoma
  TGI: > 100 µM
U251 CNS
  TGI: > 100 µM
OVCAR-3 ovarian
  TGI: > 100 µM
NCI-H226 lung
  TGI: > 100 µM
RPMI-8226 leukemia
  TGI: > 100 µM
SW-620 colon
  TGI: > 100 µM
TK-10 renal
  TGI: > 100 µM
MCF7 breast
  TGI: > 100 µM
HCT-116 colon
  TGI: > 100 µM
RXF 393 renal
  TGI: > 100 µM
A549 NSCLC
  TGI: > 100 µM
OVCAR-8 ovarian
  TGI: > 100 µM
SK-OV-3 ovarian
  TGI: > 100 µM
EKVX NSCLC
  TGI: > 100 µM
SF-295 CNS
  TGI: > 100 µM
K-562 leukemia
  TGI: > 100 µM
HCT-15 colon
  TGI: > 100 µM
SK-MEL-5 melanoma
  TGI: > 100 µM
MOLT-4 leukemia
  TGI: > 100 µM
HOP-62 NSCLC
  TGI: > 100 µM
DU-145 prostate
  TGI: > 100 µM
M14 melanoma
  TGI: > 100 µM
ACHN renal
  TGI: > 100 µM
SN12C renal
  TGI: > 100 µM
KM12 colon
  TGI: > 100 µM
OVCAR-5 ovarian
  TGI: > 100 µM
SK-MEL-28 melanoma
  TGI: > 100 µM
SK-MEL-2 melanoma
  TGI: > 100 µM
SF-268 CNS
  TGI: > 100 µM
786-0 renal
  TGI: > 100 µM
MDA-MB-231 breast
  TGI: > 100 µM
SNB-19 CNS
  TGI: > 100 µM
LOX IMVI melanoma
  TGI: > 100 µM
HS 578T breast
  TGI: > 100 µM
HL-60(TB) leukemia
  TGI: > 100 µM
OVCAR-4 ovarian
  TGI: > 100 µM
MALME-3M melanoma
  TGI: > 100 µM
NCI/ADR-RES ovarian
  TGI: > 100 µM
HT29 colon
  TGI: > 100 µM
SNB-75 CNS
  TGI: > 100 µM
PC-3 prostate
  TGI: > 100 µM
MDA-MB-435
  TGI: > 100 µM
HCC-2998 colon
  TGI: > 100 µM
T-47D breast
  TGI: > 100 µM
NCI-H460 lung
  TGI: > 100 µM
IGROV1 ovarian
  TGI: > 100 µM
CAKI-1 renal
  TGI: > 100 µM
NCI-H522 lung
  TGI: > 100 µM
SF-539 CNS
  TGI: > 100 µM
COLO 205 colon
  TGI: > 100 µM
A498 renal
  TGI: > 100 µM
MDA-N
  TGI: > 100 µM
HOP-92 NSCLC
  TGI: > 100 µM
NCI-H23 lung
  TGI: > 100 µM
UACC-62 melanoma
  TGI: > 100 µM

## CCOC(=O)CCC(C(=O)OCC)n1nnc2cc(Nc3c(C)[n+]([O-])c4cc(Cl)ccc4[n+]3[O-])ccc21 (configuration not stated)
CCRF-CEM leukemia
  TGI: > 100 µM
UO-31 renal
  TGI: > 100 µM
UACC-257 melanoma
  TGI: > 100 µM
U251 CNS
  TGI: > 100 µM
BT-549 breast
  TGI: > 100 µM
OVCAR-3 ovarian
  TGI: > 100 µM
NCI-H226 lung
  TGI: > 100 µM
RPMI-8226 leukemia
  TGI: > 100 µM
SW-620 colon
  TGI: > 100 µM
TK-10 renal
  TGI: > 100 µM
MCF7 breast
  TGI: 80 µM
HCT-116 colon
  TGI: > 100 µM
RXF 393 renal
  TGI: > 100 µM
A549 NSCLC
  TGI: > 100 µM
OVCAR-8 ovarian
  TGI: > 100 µM
SK-OV-3 ovarian
  TGI: > 100 µM
EKVX NSCLC
  TGI: 71.9 µM
SF-295 CNS
  TGI: > 100 µM
K-562 leukemia
  TGI: > 100 µM
HCT-15 colon
  TGI: > 100 µM
SK-MEL-5 melanoma
  TGI: > 100 µM
MOLT-4 leukemia
  TGI: > 100 µM
HOP-62 NSCLC
  TGI: > 100 µM
DU-145 prostate
  TGI: > 100 µM
M14 melanoma
  TGI: > 100 µM
ACHN renal
  TGI: > 100 µM
SN12C renal
  TGI: > 100 µM
KM12 colon
  TGI: > 100 µM
OVCAR-5 ovarian
  TGI: > 100 µM
SK-MEL-2 melanoma
  TGI: > 100 µM
SF-268 CNS
  TGI: > 100 µM
786-0 renal
  TGI: > 100 µM
SNB-19 CNS
  TGI: > 100 µM
LOX IMVI melanoma
  TGI: > 100 µM
HS 578T breast
  TGI: > 100 µM
HL-60(TB) leukemia
  TGI: > 100 µM
OVCAR-4 ovarian
  TGI: > 100 µM
MALME-3M melanoma
  TGI: > 100 µM
NCI/ADR-RES ovarian
  TGI: > 100 µM
HT29 colon
  TGI: > 100 µM
SNB-75 CNS
  TGI: > 100 µM
PC-3 prostate
  TGI: > 100 µM
MDA-MB-435
  TGI: > 100 µM
T-47D breast
  TGI: > 100 µM
NCI-H460 lung
  TGI: > 100 µM
IGROV1 ovarian
  TGI: > 100 µM
CAKI-1 renal
  TGI: > 100 µM
NCI-H522 lung
  TGI: > 100 µM
SF-539 CNS
  TGI: > 100 µM
COLO 205 colon
  TGI: > 100 µM
A498 renal
  TGI: > 100 µM
MDA-N
  TGI: > 100 µM
HOP-92 NSCLC
  TGI: > 100 µM
NCI-H23 lung
  TGI: > 100 µM
UACC-62 melanoma
  TGI: > 100 µM
